According to patent US20220275534A1, “Peptide Library Production Method” (The University of Tokyo, priority 2018, published 2022):
Positions of bridges follow the written chain, without caps; N, C: chain ends. Non-standard residues stand in square brackets, D forms with d. No end group written: not given here.

How the values were obtained:
KgpF [1] = assay: Prenylation of translated thioether-closed artificial cyclic peptides with KgpF, MALDI-TOF-MS analysis (Examples 1-9; 37° C., 18 hours); type: biochemical, Microcystis aeruginosa; design: key to DMAPP adduct 0 / DMAPP adduct 1: 0: N/A; 1: Nothing; 2: Very weak intensity; 3: Medium intensity; 4: Strong intensity; conditions: 2 mM DMAPP; for prenylation modification with KgpF (MALDI-TOF-MS): Example 3: 160 or 580 μM KgpF; for DMAPP adduct 1: MALDI-TOF-MS peak intensity of singly prenylated peptide; for DMAPP adduct 1 / DMAPP adduct 0: 160 μM KgpF; for DMAPP adduct 0: MALDI-TOF-MS peak intensity of unmodified peptide
Sequence of KgpF (as listed by the source): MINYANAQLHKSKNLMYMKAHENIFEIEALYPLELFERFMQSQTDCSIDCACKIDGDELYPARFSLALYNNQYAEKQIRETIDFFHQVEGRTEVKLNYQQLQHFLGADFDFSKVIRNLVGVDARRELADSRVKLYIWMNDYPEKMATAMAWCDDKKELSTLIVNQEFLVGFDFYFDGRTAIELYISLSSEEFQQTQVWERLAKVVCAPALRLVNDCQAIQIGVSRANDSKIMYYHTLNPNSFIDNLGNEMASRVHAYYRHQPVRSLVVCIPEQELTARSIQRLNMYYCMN
Method: With regards to each of KgpF and OltF, heterogeneous co-expression of a gene synthesized after optimizing the codon of a gene derived from a producing strain was performed in Escherichia coli, followed by purification to obtain a prenylation enzyme.
The analysis was performed using UltrafleXtreme (Bruker Daltonics) or Autoflex II (Bruker Daltonics) and peptide calibration standard II (Bruker Daltonics).
In short, six kinds in total of peptides were obtained by translation and synthesis under (Conditions 1) of the artificial translation system developed by the present inventors. The peptides thus obtained were then reacted with 14.7 μM KgpF at 37° C. for 18 hours in the system shown in (Conditions 2). “DMAPP” used in (Conditions 2) is dimethylallyl pyrophosphoric acid.
(Conditions 1) • FIT system: v7s/v8.0.3 • 19aa-Met: 0.5 mM • ClAc-D or L-Trp-tRNA^fMetCUA: 90 μM • Reaction: 37° C., 60 min. • Scale: […] scale
(Conditions 2) • Translated mixture amount: 2.5 μL (mixture obtained under (Conditions 1)) • KgpF: 14.7 μM • DMAPP: 2 mM • Total amount: 15.7 μL • Reaction: 37° C., 18 hours
The YG280 sequences having the steric configuration of the N terminal Trp serving as an initiation residue of D-form and those of L-form were synthesized, so that two kinds of peptides were prepared in total. These two kinds of artificial cyclic peptides were obtained by translation and synthesis in the artificial translation system (Conditions 3) developed by the present inventors. The peptides thus obtained were then reacted with 53, 160, and 580 μM KgpF in a system shown in (Conditions 4) at 37° C. for 18 hours.
(Conditions 3) • FIT system: v7s/v8.0.3 • 19aa-Met: 0.5 mM • ClAc-D or L-Trp-tRNA^fMetCUA: 120 μM • Reaction: 37° C., 3 hours • Scale: 2.5 μL scale
(Conditions 4) • Translated mixture amount: 2.5 μL (mixture obtained under (Conditions 3)) • KgpF: 53, 160, 580 μM • DMAPP: 2 mM • Reaction: 37° C., 18 hours
(§1) The above three kinds of artificial cyclic peptides were obtained by translation and synthesis in the artificial translation system (Conditions 5) developed by the present inventors. The peptides thus obtained were then reacted with KgpF in the system shown below in (Conditions 6) at 37° C. for 18 hours.
(Conditions 5) • FIT system: v7s/v8.0.3 • 19aa-Met: 0.5 mM • ClAc-D or L-Trp-tRNA^fMetCUA: 90 μM • Reaction: 37° C., 60 min. • Scale: 2.5 μL scale
(Conditions 6) • Translated mixture amount: 2.5 μL (mixture obtained under (Conditions 5)) • KgpF: 160 or 580 μM • DMAPP: 2 mM • Reaction: 37° C., 18 hours
as §1, with “six” for “three”, “7)” for “5)”, “with 160 μM” for “with”, “shown” for “shown below”, “8)” for “6)”
(Conditions 7) • FIT system: v7s/v9.1 • 19aa-Met: 0.5 mM • ClAc-D-Tyr-tRNA^fMetCUA: 90 μM • Reaction: 37° C., 60 min. • Scale: 2.5 μL scale
(Conditions 8) • Translated mixture amount: 2.5 μL (mixture obtained under (Conditions 7)) • KgpF: 160 μM • DMAPP: 2 mM • Reaction: 37° C., 18 hours
as §1, with “9)” for “5)”, “with 160 μM” for “with”, “shown” for “shown below”, “10)” for “6)”
(Conditions 9) • FIT system: v7s/v9.1 • 19aa-Met: 0.5 mM • ClAc-D-Tyr-tRNA^fMetCUA: 90 μM • Reaction: 37° C., 60 min. • Scale: 2.5 μL scale
(Conditions 10) • Translated mixture amount: 2.5 μL (mixture obtained under (Conditions 9)) • KgpF: 160 μM • DMAPP: 2 mM • Reaction: 37° C., 18 hours
The above artificial cyclic peptides were obtained by translation and synthesis in the artificial translation system (Conditions 11) developed by the present inventors. […]

KgpF v 3.1 = assay: Prenylation of artificial cyclic peptides with 10 μM KgpF v 3.1 (Example 11; Table 7); type: biochemical, Microcystis aeruginosa; design: key: 5: strong intensity; 4: medium intensity; 3: weak intensity; 2: very weak intensity; 1: no peak; N/A: not observed; conditions: KgpF v 3.1 10 μM
Method: Reaction of the artificial cyclic peptide shown in Table 7 was made under conditions similar to (Conditions 11) and (Conditions 12) except that v8s/v11.1 was used as FIT system, KgpF v 3.1 was used as a prenylation modification enzyme, and the concentration of the KgpF v 3.1 was set at 10 μM. Here, KgpF v 3.1 is an enzyme having a higher purification degree and more improved specific activity than KgpF used under (Conditions 12).

OltF v 2.1 = assay: Modification test of thioether-closed artificial cyclic peptides with 9.13 μM OltF v 2.1 (Example 16; Tables 11 and 12); type: biochemical, Planktothrix; design: key: 5: strong intensity; 4: medium intensity; 3: weak intensity; 2: very weak intensity; 1: no peak; N/A: not observed; conditions: Table 11; OltF v 2.1 9.13 μM, DMAPP 2 mM, 37° C., 18 hours
Sequence of OltF v 2.1 (as listed by the source): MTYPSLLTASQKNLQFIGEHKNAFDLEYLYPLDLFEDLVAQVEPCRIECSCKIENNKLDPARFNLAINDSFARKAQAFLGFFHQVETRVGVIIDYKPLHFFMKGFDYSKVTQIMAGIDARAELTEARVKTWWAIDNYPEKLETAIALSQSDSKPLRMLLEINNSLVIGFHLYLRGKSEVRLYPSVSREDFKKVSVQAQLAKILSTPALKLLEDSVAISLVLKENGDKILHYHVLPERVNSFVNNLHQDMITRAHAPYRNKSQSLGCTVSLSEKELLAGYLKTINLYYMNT
Method: The artificial cyclic peptides shown in Table 11 and Table 12 were obtained by translation and synthesis in the artificial translation system (Conditions 23) developed by the present inventors. The peptides thus obtained were then reacted with 9.13 μM OltF in the system shown in (Conditions 24) at 37° C. for 18 hours. It is to be noted that OltF v 2.1 is an enzyme prepared from OltF used in (Conditions 22) while changing a purification manner.
(Conditions 23) • FIT system: v8s/v11.1 • 19aa-Met: 0.5 mM • ClAc-D or L-Tyr-tRNA^fMetCUA: 90 μM • Reaction: 37° C., 60 min. • Scale: 2.5 μL scale
(Conditions 24) • Translated mixture amount: 2.5 μL (mixture obtained under (Conditions 23)) • OltF v 2.1: 9.13 μM • DMAPP: 2 mM • Reaction: 37° C., 18 hours

KgpF [2] = assay: Prenylation of artificial cyclic peptides containing VW or WG sequence with 60 μM KgpF (Examples 12 and 13; Tables 8, 9, 10); type: biochemical, Microcystis aeruginosa; design: key: 5: strong intensity; 4: medium intensity; 3: weak intensity; 2: very weak intensity; 1: no peak; N/A: not observed; conditions: KgpF 60 μM, DMAPP 2 mM, 37° C., 18 hours
Method: (§2) The artificial cyclic peptides shown in Table 8 and Table 9 were obtained by translation and synthesis in the artificial translation system (Conditions 15) developed by the present inventors. The peptides thus obtained were then reacted with 60 μM KgpF in the system shown in (Conditions 16) at 37° C. for 18 hours.
(Conditions 15) • FIT system: v8s/v11.1 • 19aa-Met: 0.5 mM • ClAc-D-Tyr-tRNA^fMetCUA: 90 μM • Reaction: 37° C., 60 min. • Scale: 2.5 μL scale
(Conditions 16) • Translated mixture amount: 2.5 μL (mixture obtained under (Conditions 15)) • KgpF: 60 μM • DMAPP: 2 mM • Reaction: 37° C., 18 hours
as §2, with “10” for “8 and Table 9”, “17)” for “15)”, “18)” for “16)”
(Conditions 17) • FIT system: v8s/v11.1 • 19aa-Met: 0.5 mM • ClAc-D-Tyr-tRNA^fMetCUA: 90 μM • Reaction: 37° C., 60 min. • Scale: 2.5 μL scale
(Conditions 18) • Translated mixture amount: 2.5 μL (mixture obtained under (Conditions 17)) • KgpF: 60 μM • DMAPP: 2 mM • Reaction: 37° C., 18 hours

[3] = Table 8, VW sequence, various ring sizes
[4] = Table 9, VW sequence, various ring sizes
[5] = Table 10, W at various positions

YG290-CM11: peptide having no Trp residue in the peptide chain (random region) (Ac-[dW]CDVSGRFGYFPC; thioether (positions not given here); also: thioether ring to Cys2 or Cys13)
prenylation modification with KgpF (MALDI-TOF-MS) (KgpF [1]): no modified product was found

YG291-PaktiL2 ({CH2CO}-[dY]WILITWPLVRRKC; thioether N-14 (inferred))
Peak intensity, The number of prenyl groups added 0 (KgpF v 3.1): 4
Peak intensity, The number of prenyl groups added 1 (KgpF v 3.1): 4

YG292 ({CH2CO}-[dY]IRRPWVPIIYLGC; thioether N-14 (inferred))
Peak intensity, The number of prenyl groups added 0 (OltF v 2.1): 2
Peak intensity, The number of prenyl groups added 1 (OltF v 2.1): 5

YG293 ({CH2CO}-[dY]TFRDVWIFYGSLLSRC; thioether N-17 (inferred))
Peak intensity, The number of prenyl groups added 0 (OltF v 2.1): 3
Peak intensity, The number of prenyl groups added 1 (OltF v 2.1): 4

YG293-MaL4 ({CH2CO}-[dY]TFRDVWIFYGSLLSRC; thioether N-17 (inferred))
Peak intensity, The number of prenyl groups added 0 (KgpF v 3.1): 1
Peak intensity, The number of prenyl groups added 1 (KgpF v 3.1): 5

YG295 ({CH2CO}-[dY]ISWNEFNSPNWRFITC; thioether N-17 (inferred); not fully specified)
Peak intensity, The number of prenyl groups added 0 (OltF v 2.1): 4
Peak intensity, The number of prenyl groups added 1 (OltF v 2.1): 3
Peak intensity, The number of prenyl groups added 2 (OltF v 2.1): 1

YG295-aML5 ({CH2CO}-[dY]ISWNEFNSPNWRFITC; thioether N-17 (inferred))
Peak intensity, The number of prenyl groups added 0 (KgpF v 3.1): 1
Peak intensity, The number of prenyl groups added 1 (KgpF v 3.1): 5
Peak intensity, The number of prenyl groups added 2 (KgpF v 3.1): 1

YG296 ({CH2CO}-[dY]WYYAWDQTYKAFPC; thioether N-15 (inferred))
Peak intensity, The number of prenyl groups added 0 (OltF v 2.1): 3
Peak intensity, The number of prenyl groups added 1 (OltF v 2.1): 2
Peak intensity, The number of prenyl groups added 2 (OltF v 2.1): 1

YG296-aMD5 ({CH2CO}-[dY]WYYAWDQTYKAFPC; thioether N-15 (inferred))
Peak intensity, The number of prenyl groups added 0 (KgpF v 3.1): 5
Peak intensity, The number of prenyl groups added 1 (KgpF v 3.1): 3
Peak intensity, The number of prenyl groups added 2 (KgpF v 3.1): 1

YG297 ({CH2CO}-[dY]RQFNRRTHEVWNLDC; thioether N-16 (inferred))
Peak intensity, The number of prenyl groups added 0 (OltF v 2.1): 5
Peak intensity, The number of prenyl groups added 1 (OltF v 2.1): 4

YG298: YG280 mutant having only the N-terminal Trp residue remained ({CH2CO}-[dW]LNGDNNYSTPC; thioether N-12)
prenylation modification with KgpF (MALDI-TOF-MS) (KgpF [1]): no modified product was found

YG299 (Ac-[dY]CDVSGRWGYFPC; thioether (positions not given here); not fully specified (bridges))
Peak intensity, The number of prenyl groups added 0 (OltF v 2.1): 3
Peak intensity, The number of prenyl groups added 1 (OltF v 2.1): 5

YG300-CM11(RFG > NWS): artificial cyclic peptide, template YCDVSGNWSYPC (SEQ ID NO 239)
DMAPP adduct 1 (KgpF [1]): 4
DMAPP adduct 0 (KgpF [1]): 2

YG304-YG280(FFWFF): artificial cyclic peptide, template YLNGDFFWFFPC (SEQ ID NO 246) ({CH2CO}-[dY]LNGDFFWFFPC; thioether N-12)
DMAPP adduct 1 (KgpF [1]): 3
DMAPP adduct 0 (KgpF [1]): 4

YG386 ({CH2CO}-[dY]VWCYPRG; thioether N-4)
Peak intensity, The number of prenyl groups added 0 (KgpF [2]; [3]): 1
Peak intensity, The number of prenyl groups added 1 (KgpF [2]; [3]): 5

YG390 ({CH2CO}-[dY]RVWGYPC; thioether N-8)
Peak intensity, The number of prenyl groups added 0 (KgpF [2]; [3]): 1
Peak intensity, The number of prenyl groups added 1 (KgpF [2]; [3]): 5

YG395 ({CH2CO}-[dY]HDYRVWGYHTPC; thioether N-13 (inferred))
Peak intensity, The number of prenyl groups added 0 (KgpF [2]; [4]): 1
Peak intensity, The number of prenyl groups added 1 (KgpF [2]; [4]): 5

YG402 ({CH2CO}-[dY]WGHDYRVYHTYPC; thioether N-14 (inferred))
Peak intensity, The number of prenyl groups added 0 (KgpF [2]; [5]): 5
Peak intensity, The number of prenyl groups added 1 (KgpF [2]; [5]): 1

YG411 ({CH2CO}-[dY]HDYRYHTYPVWGC; thioether N-14 (inferred))
Peak intensity, The number of prenyl groups added 0 (KgpF [2]; [5]): 1
Peak intensity, The number of prenyl groups added 1 (KgpF [2]; [5]): 5
